Assays:
[1] = tested on: adjuvant-associated biological themes in LV, SP, LN; details: LV, ID
Excerpt: A defined sets of genes were selected according to specified criteria (e.g., FC, PA-call, threshold values). Their functional enrichment values were then obtained from TargetMine (Chen, Y. A., Tripathi, L. P. & Mizuguchi, K. PloS one 6, e17844 (2011)) (http://targetmine.mizuguchilab.org/) using the API interface. The following resources were used throughout the analysis via TargetMine Interface (GO, GOSlim, Integrated Pathway, KEGG, Reactome, and the NCI pathway). The Holm-Bonferroni method was used for multiple testing corrections.
Whole organ transcriptome data for each organ from each mouse were analyzed as follows to obtain biological themes for individual samples from each adjuvant-administered group of three mice. […] A set of Pj genes was first defined, where eij/ei(c)>2.0. Biological themes enriched within Pj were then identified using TargetMine (Chen, Y. A. et al., PloS one 6, e17844 (2011)) (http://targetmine.mizuguchilab.org/). Tj denote the resulting list of biological themes, with associated p-values from Fischer's exact test.
Next, the biological themes called by all the individual samples in the group were scored as follows. Having obtained three lists (T1, T2 and T3) for a given experimental condition, a consensus list T of themes was created as T={(t1, p1), (t2, p2), . . . }, where ti is a biological theme that appears in all of T1, T2 and T3, and pi is the smallest of the associated p-values. Only the themes with the p-value of <0.05 were included in T.
To summarize the biological themes in T further, a list of terms considered to be associated with adjuvant activity in general was separately prepared. AT={at1, at2, . . . }, where ati is a pre-selected adjuvant-associated term (e.g., “stress” or “cytokine”). Finally, an enrichment score S for an adjuvant-associated term ati was defined as: S(ati)=Σ−log(pj), where the name of tj in T includes a term ati as a substring and pj is the associated p-value.
This scoring scheme summarizes the relative enrichment of pre-selected adjuvant-associated terms in genes responding to each adjuvant in each organ.

liver (LV) = assay: Whole organ transcriptome (GeneChip microarray) of liver 6 h after adjuvant administration: sDEGs, hierarchical clustering; assay type: in vivo, C57BL/6 mice; details: hierarchical clustering, liver; further: key: G1 (interferon signaling); G2 (metabolism of lipids and lipoproteins); G3 (response to stress); G4 (response to wounding); G5 (phosphate-containing compound metabolic process); G6 (phagosome)

For `CCOCc1nc2c(N)nc3ccccc3c2n1CC(C)(C)O` [R848, 4-amino-2-(ethoxymethyl)-a,a-dimethyl-1H-imidazo[4,5-c]quinoline-1-ethanol], the “IFN alpha, GO annotation line 1 of 5” value [1] was 10.2, the “IFN alpha, GO annotation line 2 of 5” value [1] was 3.15 and the “IFN alpha: cellular response to interferon-alpha” value [1] was 0. For the same compound, the “IFN alpha: positive regulation of interferon-alpha production” value [1] was 0, the “IFN alpha: regulation of interferon-alpha production” value [1] was 0 and the “IFN beta: cellular response to interferon-beta” value [1] was 17.9. The “IFN beta: interferon-beta production” value [1] was 7.51, the “IFN beta: positive regulation of interferon-beta production” value [1] was 6.66 and the “IFN beta: regulation of interferon-beta production” value [1] was 5.68. The “IFN beta: response to interferon-beta” value [1] was 23.9, the “IFN gamma: cellular response to interferon-gamma” value [1] was 11.2 and the “IFN gamma: interferon-gamma production” value [1] was 0. For the same compound, the “IFN gamma: regulation of interferon-gamma production” value [1] was 0, the “IFN gamma: response to interferon-gamma” value [1] was 15.7 and the “NF-kappa B signaling pathway, GO annotation line 1 of 4” value [1] was 8.86. The “NF-kappa B signaling pathway, GO annotation line 2 of 4” value [1] was 7.93, the “NF-kappa B signaling pathway, GO annotation line 3 of 4” value [1] was 5.3 and the “NF-kappa B signaling pathway, GO annotation line 4 of 4” value [1] was 5.28. The TNF signaling pathway [1] was 16.1, the “adaptive immune response, GO annotation line 1 of 5” value [1] was 4.42 and the “adaptive immune response, GO annotation line 2 of 5” value [1] was 6.23. For the same compound, the “adaptive immune response, GO annotation line 3 of 5” value [1] was 4.06, the “adaptive immune response, GO annotation line 4 of 5” value [1] was 0 and the “adaptive immune response, GO annotation line 5 of 5” value [1] was 0. For the same compound, the “apoptosis, GO annotation line 1 of 8” value [1] was 18.6, the “apoptosis, GO annotation line 2 of 8” value [1] was 15.5 and the “apoptosis, GO annotation line 3 of 8” value [1] was 10.6. For the same compound, the “apoptosis, GO annotation line 4 of 8” value [1] was 5.18, the “apoptosis, GO annotation line 5 of 8” value [1] was 4.1 and the “apoptosis, GO annotation line 6 of 8” value [1] was 5.48. For the same compound, the “apoptosis, GO annotation line 7 of 8” value [1] was 0, the “apoptosis, GO annotation line 8 of 8” value [1] was 0 and the “cell death, GO annotation line 1 of 9” value [1] was 23.1. For the same compound, the “cell death, GO annotation line 2 of 9” value [1] was 18.3, the “cell death, GO annotation line 3 of 9” value [1] was 19.4 and the “cell death, GO annotation line 4 of 9” value [1] was 15.5. The “cell death, GO annotation line 5 of 9” value [1] was 15.5, the “cell death, GO annotation line 6 of 9” value [1] was 4.66 and the “cell death, GO annotation line 7 of 9” value [1] was 4.64. The “cell death, GO annotation line 8 of 9” value [1] was 0, the “cell death, GO annotation line 9 of 9” value [1] was 0 and the “chemokine, GO annotation line 1 of 4” value [1] was 3.95. For the same compound, the “chemokine, GO annotation line 2 of 4” value [1] was 0, the “chemokine, GO annotation line 3 of 4” value [1] was 0 and the “chemokine, GO annotation line 4 of 4” value [1] was 0. The “chemotaxis, GO annotation line 1 of 11” value [1] was 11, the “chemotaxis, GO annotation line 2 of 11” value [1] was 0 and the “chemotaxis, GO annotation line 3 of 11” value [1] was 8.03. For the same compound, the “chemotaxis, GO annotation line 4 of 11” value [1] was 3.91, the “chemotaxis, GO annotation line 5 of 11” value [1] was 0 and the “chemotaxis, GO annotation line 6 of 11” value [1] was 4.44. The “chemotaxis, GO annotation line 7 of 11” value [1] was 3.7, the “chemotaxis, GO annotation line 8 of 11” value [1] was 3.31 and the “chemotaxis, GO annotation line 9 of 11” value [1] was 0. For the same compound, the “chemotaxis, GO annotation line 10 of 11” value [1] was 3.62, the “chemotaxis, GO annotation line 11 of 11” value [1] was 0 and the “cytokine, GO annotation line 1 of 17” value [1] was 44.8. The “cytokine, GO annotation line 2 of 17” value [1] was 30.5, the “cytokine, GO annotation line 3 of 17” value [1] was 30.4 and the “cytokine, GO annotation line 4 of 17” value [1] was 11.1. The “cytokine, GO annotation line 5 of 17” value [1] was 30.4, the “cytokine, GO annotation line 6 of 17” value [1] was 26.5 and the “cytokine, GO annotation line 7 of 17” value [1] was 16.5. The “cytokine, GO annotation line 8 of 17” value [1] was 5.44, the “cytokine, GO annotation line 9 of 17” value [1] was 4.8 and the “cytokine, GO annotation line 10 of 17” value [1] was 20.3. The “cytokine, GO annotation line 11 of 17” value [1] was 5.01, the “cytokine, GO annotation line 12 of 17” value [1] was 0 and the “cytokine, GO annotation line 13 of 17” value [1] was 5.55. For the same compound, the “cytokine, GO annotation line 14 of 17” value [1] was 6.84, the “cytokine, GO annotation line 15 of 17” value [1] was 0 and the “cytokine, GO annotation line 16 of 17” value [1] was 0. For the same compound, the “cytokine, GO annotation line 17 of 17” value [1] was 0, the “defense response, GO annotation line 1 of 11” value [1] was 71.2 and the “defense response, GO annotation line 2 of 11” value [1] was 50.3. For the same compound, the “defense response, GO annotation line 3 of 11” value [1] was 33.9, the “defense response, GO annotation line 4 of 11” value [1] was 46.5 and the “defense response, GO annotation line 5 of 11” value [1] was 18.6. The “defense response, GO annotation line 6 of 11” value [1] was 8.29, the “defense response, GO annotation line 7 of 11” value [1] was 5.54 and the “defense response, GO annotation line 8 of 11” value [1] was 20. The “defense response, GO annotation line 9 of 11” value [1] was 6.02, the “defense response, GO annotation line 10 of 11” value [1] was 4.72 and the “defense response, GO annotation line 11 of 11” value [1] was 0. For the same compound, the “immune response, GO annotation line 1 of 8” value [1] was 54.5, the “immune response, GO annotation line 2 of 8” value [1] was 27.8 and the “immune response, GO annotation line 3 of 8” value [1] was 34.2. The “immune response, GO annotation line 4 of 8” value [1] was 14.6, the “immune response, GO annotation line 5 of 8” value [1] was 12.6 and the “immune response, GO annotation line 6 of 8” value [1] was 15.1. The “immune response, GO annotation line 7 of 8” value [1] was 0, the “immune response, GO annotation line 8 of 8” value [1] was 0 and the “inflammatory response, GO annotation line 1 of 5” value [1] was 22.2. The “inflammatory response, GO annotation line 2 of 5” value [1] was 6.29, the “inflammatory response, GO annotation line 3 of 5” value [1] was 0 and the “inflammatory response, GO annotation line 4 of 5” value [1] was 0. The “inflammatory response, GO annotation line 5 of 5” value [1] was 0, the “innate immune response, GO annotation line 1 of 6” value [1] was 49.6 and the “innate immune response, GO annotation line 2 of 6” value [1] was 37.9. For the same compound, the “innate immune response, GO annotation line 3 of 6” value [1] was 22.9, the “innate immune response, GO annotation line 4 of 6” value [1] was 17.9 and the “innate immune response, GO annotation line 5 of 6” value [1] was 13.8. For the same compound, the “innate immune response, GO annotation line 6 of 6” value [1] was 8.91, the “interleukin-6: interleukin-6 production” value [1] was 7.8 and the “interleukin-6: positive regulation of interleukin-6 production” value [1] was 4.53. The “interleukin-6: regulation of interleukin-6 production” value [1] was 6.67, the “interleukin-12: interleukin-12 production” value [1] was 0 and the “interleukin-12: positive regulation of interleukin-12 production” value [1] was 0. The “interleukin-12: regulation of interleukin-12 production” value [1] was 0, the “migration, GO annotation line 1 of 10” value [1] was 8.03 and the “migration, GO annotation line 2 of 10” value [1] was 0. For the same compound, the “migration, GO annotation line 3 of 10” value [1] was 7.89, the “migration, GO annotation line 4 of 10” value [1] was 5.8 and the “migration, GO annotation line 5 of 10” value [1] was 3.14. For the same compound, the “migration, GO annotation line 6 of 10” value [1] was 3.96, the “migration, GO annotation line 7 of 10” value [1] was 3.31 and the “migration, GO annotation line 8 of 10” value [1] was 0. For the same compound, the “migration, GO annotation line 9 of 10” value [1] was 0, the “migration, GO annotation line 10 of 10” value [1] was 0 and the “stress, GO annotation line 1 of 3” value [1] was 63.8. For the same compound, the “stress, GO annotation line 2 of 3” value [1] was 45.6, the “stress, GO annotation line 3 of 3” value [1] was 0 and the “wounding, GO annotation line 1 of 3” value [1] was 11.1. For the same compound, the “wounding, GO annotation line 2 of 3” value [1] was 9.74, the “wounding, GO annotation line 3 of 3” value [1] was 4.53 and the “adjuvant group (cluster) in LV” value (liver (LV)) was “G1”.

— US20230021483A1, “[…] […] METHOD AND CLASSIFICATION OF PHARMACEUTICAL COMPONENTS BY USING TRANSCRIPTOMES” (National Institutes of Biomedical Innovation, Health and …, priority 2016, published 2023)
